Measured values as given in PMC2850174 (The Journal of biological chemistry, 2007).
One block for each molecule: values may come before it.

Tests used:
HEX-1 = biological target: T1, HEX-1 (Caenorhabditis elegans, UniProt Q22492); experiment: p-nitrophenylglycoside hydrolysis assay, Dixon plot; assay type: biochemical
T1 sequence (Q22492 19-555 limits assumed): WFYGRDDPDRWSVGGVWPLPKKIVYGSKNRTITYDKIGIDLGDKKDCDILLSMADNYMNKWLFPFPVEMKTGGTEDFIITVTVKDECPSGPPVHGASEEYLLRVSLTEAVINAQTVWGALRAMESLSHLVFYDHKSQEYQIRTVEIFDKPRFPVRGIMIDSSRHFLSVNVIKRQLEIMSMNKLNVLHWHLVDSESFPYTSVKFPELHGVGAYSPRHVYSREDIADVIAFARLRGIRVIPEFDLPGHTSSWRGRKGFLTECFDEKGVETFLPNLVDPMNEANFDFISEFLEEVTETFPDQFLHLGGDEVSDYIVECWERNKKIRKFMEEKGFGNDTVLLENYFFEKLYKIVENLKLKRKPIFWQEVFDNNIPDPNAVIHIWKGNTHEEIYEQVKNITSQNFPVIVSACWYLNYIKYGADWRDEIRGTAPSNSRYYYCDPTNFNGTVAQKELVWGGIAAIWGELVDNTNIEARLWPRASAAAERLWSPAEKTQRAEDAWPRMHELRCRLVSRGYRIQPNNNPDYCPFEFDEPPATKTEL

AtHEX1 [1] = biological target: T2, AtHEX1 (Arabidopsis thaliana, UniProt Q8L7S6); experiment: p-nitrophenylglycoside hydrolysis assay, single concentration; assay type: biochemical; conditions: read-out: % inhibition at 0.1 mM
T2 sequence (Q8L7S6 25-535 limits assumed): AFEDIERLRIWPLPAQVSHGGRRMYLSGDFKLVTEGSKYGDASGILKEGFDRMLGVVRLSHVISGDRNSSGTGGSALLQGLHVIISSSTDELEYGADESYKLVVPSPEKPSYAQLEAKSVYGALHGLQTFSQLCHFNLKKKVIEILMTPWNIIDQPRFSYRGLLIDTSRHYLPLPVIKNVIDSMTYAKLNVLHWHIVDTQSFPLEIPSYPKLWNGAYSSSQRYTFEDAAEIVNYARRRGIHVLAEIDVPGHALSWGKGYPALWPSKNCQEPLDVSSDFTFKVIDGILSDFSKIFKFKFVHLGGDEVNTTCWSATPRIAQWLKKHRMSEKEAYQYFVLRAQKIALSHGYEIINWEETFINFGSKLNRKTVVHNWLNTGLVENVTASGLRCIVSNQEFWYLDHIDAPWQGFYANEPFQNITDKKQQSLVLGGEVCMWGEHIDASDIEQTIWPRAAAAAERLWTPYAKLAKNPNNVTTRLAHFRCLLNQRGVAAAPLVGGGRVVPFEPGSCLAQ

AtHEX1 [2] = biological target: T2, AtHEX1; experiment: p-nitrophenylglycoside hydrolysis assay; assay type: biochemical
HEX-3 = biological target: T3, HEX-3 (Caenorhabditis elegans, UniProt A7DY67); experiment: GnGn-PA digestion, RP-HPLC; assay type: biochemical; conditions: read-out: % inhibition at 200 μM
T3 sequence (A7DY67 31-591 limits assumed): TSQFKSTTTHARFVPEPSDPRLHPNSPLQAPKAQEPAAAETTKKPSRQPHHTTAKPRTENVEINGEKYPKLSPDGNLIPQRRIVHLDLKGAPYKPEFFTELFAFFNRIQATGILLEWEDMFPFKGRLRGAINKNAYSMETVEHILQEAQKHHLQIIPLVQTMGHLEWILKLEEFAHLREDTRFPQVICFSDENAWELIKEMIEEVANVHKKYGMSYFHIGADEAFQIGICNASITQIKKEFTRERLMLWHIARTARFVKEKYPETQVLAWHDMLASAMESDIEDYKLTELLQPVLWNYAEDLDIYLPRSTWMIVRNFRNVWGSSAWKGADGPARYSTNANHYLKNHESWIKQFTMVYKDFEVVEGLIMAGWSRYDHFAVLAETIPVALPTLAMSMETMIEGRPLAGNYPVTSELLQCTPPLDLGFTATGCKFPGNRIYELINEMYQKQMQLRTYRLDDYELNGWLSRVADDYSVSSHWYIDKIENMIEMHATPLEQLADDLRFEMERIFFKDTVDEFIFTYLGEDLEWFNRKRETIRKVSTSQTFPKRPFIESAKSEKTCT

HEX-2 = biological target: T4, HEX-2 (Caenorhabditis elegans, UniProt G5EFL1); experiment: GnGn-PA digestion, RP-HPLC; assay type: biochemical; conditions: read-out: % inhibition at 200 μM
T4 sequence (G5EFL1 36-596 limits assumed): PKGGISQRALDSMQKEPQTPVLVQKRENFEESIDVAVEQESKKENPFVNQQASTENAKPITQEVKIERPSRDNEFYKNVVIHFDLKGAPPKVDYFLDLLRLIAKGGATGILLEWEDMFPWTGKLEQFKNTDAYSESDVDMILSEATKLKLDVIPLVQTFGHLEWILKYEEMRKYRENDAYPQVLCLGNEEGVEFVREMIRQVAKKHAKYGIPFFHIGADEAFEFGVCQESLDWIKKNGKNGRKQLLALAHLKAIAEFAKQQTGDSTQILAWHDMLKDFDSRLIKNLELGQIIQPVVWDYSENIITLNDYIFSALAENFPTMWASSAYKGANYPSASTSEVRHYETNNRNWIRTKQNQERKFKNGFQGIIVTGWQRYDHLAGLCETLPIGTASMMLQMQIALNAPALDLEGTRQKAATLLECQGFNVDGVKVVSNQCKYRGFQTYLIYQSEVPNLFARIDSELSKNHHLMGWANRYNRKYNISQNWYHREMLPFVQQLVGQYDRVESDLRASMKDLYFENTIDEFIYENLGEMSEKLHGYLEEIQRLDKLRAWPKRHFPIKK

purified protein = substrate: CC(=O)N[C@H]1[C@H](Oc2ccc([N+](=O)[O-])cc2)O[C@H](CO)[C@@H](O)[C@@H]1O; experiment: purified protein

- Ki (HEX-1): ~2 µM
- inhibition at 100 µM (AtHEX1 [1]): ~90%
Molecule: CC(=O)N[C@H]1/C(=N/OC(=O)Nc2ccccc2)O[C@H](CO)[C@@H](O)[C@@H]1O [PUGNAc, O-(2-acetamido-2-deoxy-D-glucopyranosylidene)amino N-phenylcarbamate]

- p-nitrophenylglycoside hydrolysis assay (about 50% inhibition at 0.2 mM) (AtHEX1 [2]): about 50% inhibition at 0.2
- Ki (HEX-1): ~1000 µM
Molecule: CC(=O)N[C@H]1CN[C@H](CO)[C@@H](O)[C@@H]1O [2-acetamido-1,2-dideoxynojirimycin, 2-acetamido-1,2,5-trideoxy-1,5-imino-D-glucitol]

Molecule: CC(=O)N[C@H]1CN2CC[C@H](O)[C@@H]2[C@@H](O)[C@@H]1O
- inhibition at 200 µM (HEX-3): ~80%
- inhibition at 200 µM (HEX-2): ~80%

B1: HEX-1 (Caenorhabditis elegans) (protein)
chain: T1 sequence (Q22492 19-555 limits assumed)
- Km (purified protein): 1.1 mM
